Test results taken from ChEMBL document CHEMBL4308841, “Synthesis, in vitro antiproliferative activity, and kinase inhibitory effects of pyrazole-containing diarylureas and diarylamides” (Eur J Med Chem, 2018).

Columns and labels:
[1] = tested on: T47D; experiment: Growth inhibition of human T47D cells assessed as cell growth at 1 uM incubated for 48 hrs by sulforhodamine B assay relative to control; type: functional; details: read-out: Activity
[2] = tested on: CAKI-1; experiment: Growth inhibition of human Caki1 cells incubated for 48 hrs by sulforhodamine B assay; type: functional, cell-based; details: CAKI-1, 48 h
[3] = tested on: SNB-19; experiment: Growth inhibition of human SNB19 cells assessed as cell growth at 100 uM incubated for 48 hrs by sulforhodamine B assay relative to control; type: functional; details: SNB-19, 48 h, read-out: Activity
[4] = tested on: HL-60(TB); experiment: Growth inhibition of human HL-60(TB) cells assessed as cell growth at 0.01 uM incubated for 48 hrs by sulforhodamine B assay relative to control; type: functional; details: HL-60, 48 h, read-out: Activity
[5] = tested on: MDA-MB-231; experiment: Growth inhibition of human MDA-MB-231 cells incubated for 48 hrs by sulforhodamine B assay; type: functional, cell-based; details: MDA-MB-231, 48 h
[6] = tested on: SW-620; experiment: Growth inhibition of human SW620 cells assessed as cell growth at 0.1 uM incubated for 48 hrs by sulforhodamine B assay relative to control; type: functional; details: SW-620, 48 h, read-out: Activity
[7] = tested on: NCI-H460; experiment: Growth inhibition of human NCI-H460 cells incubated for 48 hrs by sulforhodamine B assay; type: functional, cell-based; details: NCI-H460, 48 h
[8] = tested on: 786-0; experiment: Growth inhibition of human 786-0 cells incubated for 48 hrs by sulforhodamine B assay; type: functional, cell-based; details: 786-0, 48 h
[9] = tested on: MDA-MB-468; experiment: Growth inhibition of human MDA-MB-468 cells assessed as cell growth at 0.1 uM incubated for 48 hrs by sulforhodamine B assay relative to control; type: functional; details: MDA-MB-468, 48 h, read-out: Activity
[10] = tested on: OVCAR-4; experiment: Growth inhibition of human OVCAR4 cells assessed as cell growth at 0.1 uM incubated for 48 hrs by sulforhodamine B assay relative to control; type: functional; details: OVCAR-4, 48 h, read-out: Activity
[11] = tested on: HL-60(TB); experiment: Growth inhibition of human HL-60(TB) cells incubated for 48 hrs by sulforhodamine B assay; type: functional, cell-based; details: HL-60, 48 h
[12] = tested on: MCF7; experiment: Growth inhibition of human MCF7 cells assessed as cell growth at 100 uM incubated for 48 hrs by sulforhodamine B assay relative to control; type: functional; details: MCF7, 48 h, read-out: Activity
[13] = tested on: 786-0; experiment: Growth inhibition of human 786-0 cells assessed as cell growth at 0.01 uM incubated for 48 hrs by sulforhodamine B assay relative to control; type: functional; details: 786-0, 48 h, read-out: Activity
[14] = tested on: BT-549; experiment: Growth inhibition of human BT549 cells incubated for 48 hrs by sulforhodamine B assay; type: functional, cell-based; details: BT-549, 48 h
[15] = tested on: RPMI-8226; experiment: Growth inhibition of human RPMI8226 cells assessed as cell growth at 0.1 uM incubated for 48 hrs by sulforhodamine B assay relative to control; type: functional; details: RPMI-8226, 48 h, read-out: Activity
[16] = tested on: BT-549; experiment: Growth inhibition of human BT549 cells assessed as cell growth at 0.01 uM incubated for 48 hrs by sulforhodamine B assay relative to control; type: functional; details: BT-549, 48 h, read-out: Activity
[17] = tested on: SF-295; experiment: Growth inhibition of human SF295 cells assessed as cell growth at 1 uM incubated for 48 hrs by sulforhodamine B assay relative to control; type: functional; details: SF-295, 48 h, read-out: Activity
[18] = tested on: OVCAR-5; experiment: Growth inhibition of human OVCAR5 cells incubated for 48 hrs by sulforhodamine B assay; type: functional, cell-based; details: OVCAR-5, 48 h
[19] = tested on: HL-60(TB); experiment: Growth inhibition of human HL-60(TB) cells assessed as cell growth at 100 uM incubated for 48 hrs by sulforhodamine B assay relative to control; type: functional; details: HL-60, 48 h, read-out: Activity
[20] = tested on: RXF 393; experiment: Growth inhibition of human RXF393 cells assessed as cell growth at 1 uM incubated for 48 hrs by sulforhodamine B assay relative to control; type: functional; details: RXF 393, 48 h, read-out: Activity
[21] = tested on: ACHN; experiment: Growth inhibition of human ACHN cells assessed as cell growth at 0.01 uM incubated for 48 hrs by sulforhodamine B assay relative to control; type: functional; details: read-out: Activity
[22] = tested on: HCC 2998; experiment: Growth inhibition of human HCC2998 cells assessed as cell growth at 0.1 uM incubated for 48 hrs by sulforhodamine B assay relative to control; type: functional; details: HCC 2998, 48 h, read-out: Activity
[23] = tested on: NCI-H226; experiment: Growth inhibition of human NCI-H226 cells assessed as cell growth at 0.1 uM incubated for 48 hrs by sulforhodamine B assay relative to control; type: functional; details: NCI-H226, 48 h, read-out: Activity
[24] = tested on: MDA-MB-435; experiment: Growth inhibition of human MDA-MB-435 cells assessed as cell growth at 1 uM incubated for 48 hrs by sulforhodamine B assay relative to control; type: functional; details: MDA-MB-435, 48 h, read-out: Activity
[25] = tested on: SN12C; experiment: Growth inhibition of human SN12C cells incubated for 48 hrs by sulforhodamine B assay; type: functional, cell-based
[26] = tested on: NCI-H322M; experiment: Growth inhibition of human NCI-H322M cells assessed as cell growth at 0.01 uM incubated for 48 hrs by sulforhodamine B assay relative to control; type: functional; details: read-out: Activity
[27] = tested on: PC-3; experiment: Growth inhibition of human PC3 cells assessed as cell growth at 100 uM incubated for 48 hrs by sulforhodamine B assay relative to control; type: functional; details: PC-3, 48 h, read-out: Activity
[28] = tested on: MDA-MB-231; experiment: Growth inhibition of human MDA-MB-231 cells assessed as cell growth at 100 uM incubated for 48 hrs by sulforhodamine B assay relative to control; type: functional; details: MDA-MB-231, 48 h, read-out: Activity
[29] = read-out: LC50 (the source's name)
[30] = read-out: pLC50 (the source's name) (converted)

## O=C(Nc1cccc(-n2cc(-c3ccncc3)c(-c3cc(O)cc(Cl)c3)n2)c1)Nc1ccc(Cl)c(C(F)(F)F)c1
[1]
  growth at 1 µM: 53%
[2]; read-out: GI50
  GI50: 2530 nM
[2]; [29]
  CC50: > 100 µM
[2]; read-out: TGI
  TGI: 78.7 µM
[2]; read-out: pGI50 (converted)
  GI50: 2690 nM
[2]; [30]
  CC50: > 100 µM
[2]; read-out: pTGI (converted)
  TGI: 7.94 µM
[3]
  growth at 100 µM: -33%
[4]
  growth at 0.01 µM: 95%
[5]; read-out: GI50
  GI50: 1550 nM
[5]; [29]
  CC50: > 100 µM
[5]; read-out: TGI
  TGI: 50.6 µM
[5]; read-out: pGI50 (converted)
  GI50: 1860 nM
[5]; [30]
  CC50: > 100 µM
[5]; read-out: pTGI (converted)
  TGI: 5.89 µM
[6]
  growth at 0.1 µM: 98%
[7]; read-out: GI50
  GI50: 2590 nM
[7]; [29]
  CC50: 85.8 µM
[7]; read-out: TGI
  TGI: 73.7 µM
[7]; read-out: pGI50 (converted)
  GI50: 2570 nM
[7]; [30]
  CC50: 87.1 µM
[7]; read-out: pTGI (converted)
  TGI: 7.41 µM
[8]; read-out: GI50
  GI50: 1530 nM
[8]; [29]
  CC50: 5.2 µM
[8]; read-out: TGI
  TGI: 44.5 µM
[8]; read-out: pGI50 (converted)
  GI50: 1820 nM
[8]; [30]
  CC50: 89.1 µM
[8]; read-out: pTGI (converted)
  TGI: 4.47 µM
[9]
  growth at 0.1 µM: 94%
[10]
  growth at 0.1 µM: 105%
[11]; read-out: GI50
  GI50: 2560 nM
[11]; read-out: LC50
  LC50: > 100 µM
[11]; read-out: TGI
  TGI: 66.2 µM
[11]; read-out: pGI50 (converted)
  GI50: 2880 nM
[11]; read-out: pLC50 (converted)
  LC50: > 100 µM
[11]; read-out: pTGI (converted)
  TGI: 6.61 µM
[12]
  growth at 100 µM: -43%
[13]
  growth at 0.01 µM: 98%
[14]; read-out: GI50
  GI50: 2250 nM
[14]; [29]
  CC50: 23.7 µM
[14]; read-out: TGI
  TGI: 51.5 µM
[14]; read-out: pGI50 (converted)
  GI50: 2820 nM
[14]; [30]
  CC50: 23.4 µM
[14]; read-out: pTGI (converted)
  TGI: 6.17 µM
[15]
  growth at 0.1 µM: 101%
[16]
  growth at 0.01 µM: 102%
[17]
  growth at 1 µM: 91%
[18]; read-out: GI50
  GI50: 3.79 µM
[18]; [29]
  CC50: 54.1 µM
[18]; read-out: TGI
  TGI: 13.1 µM
[18]; read-out: pGI50 (converted)
  GI50: 3.8 µM
[18]; [30]
  CC50: 83.2 µM
[18]; read-out: pTGI (converted)
  TGI: 13.2 µM
[19]
  growth at 100 µM: -15%
[20]
  growth at 1 µM: 58%
[21]
  growth at 0.01 µM: 104%
[22]
  growth at 0.1 µM: 97%
[23]
  growth at 0.1 µM: 95%
[24]
  growth at 1 µM: 57%
[25]; read-out: GI50
  GI50: 3.44 µM
[25]; read-out: LC50
  LC50: > 100 µM
[25]; read-out: TGI
  TGI: 17.2 µM
[25]; read-out: pGI50 (converted)
  GI50: 3.55 µM
[25]; read-out: pLC50 (converted)
  LC50: > 100 µM
[25]; read-out: pTGI (converted)
  TGI: 17 µM
[26]
  growth at 0.01 µM: 107%
[27]
  growth at 100 µM: -83%
[28]
  growth at 100 µM: -38%
